Read-outs that look alike come from different tables or passages of the source.
Assays:
Assay type in all cases: cell-based, human
[1] = test system: granulocyte-macrophage progenitor (GMPs); test: MLTA, GMPs: concentration-response and QSP model fit; details: for EC50 / EmaxT,GMP: QSP model parameter, sheet EC50_parameters, GMPs; for Emax_drug_GMP: parameter from QSP model fitting
Description: (§1) A custom optimized cytokine cocktail was developed using commercially available cytokines (Peprotech, New Jersey) to facilitate simultaneous multi-lineage differentiation and self-renewal of freeze-thawed primary human bone marrow-derived CD34+ cells in SFEM II media (cells and media from StemCell Technologies, Vancouver). Cultures were carried out in ultra-low attachment 96-well plates (Corning, New York) with test article added on day 0 and cultured at 37°C, 85% relative humidity, and 5% CO2 for six days before interrogating drug impact via 17-parameter flow cytometry.
(§2) The flow cytometry panel used to define hematopoietic subsets was composed of CD34-PECy7, CD90-PECY5, CD38-AF488, CD371-PE, CD45Ra-BV421, CD14-BV605, CD42b-AF647, CD10-PEDazzle594, CD235a-PerCPCy5.5 (BioLegend, California), CD15-BUV395, CD41a-APCH7, CD71-BV786 (BD Biosciences, California), and DAPI for dead cell exclusion (ThermoFisher, California). In short, Day 6 cells were harvested, FcR-blocked (FcR binding inhibitor, ThermoFisher), surface-stained, then analyzed in a buffer containing TruCount Control Beads using a BD LSR Fortessa SORP fitted with a high-throughput sampler (BD Biosciences, California). Data was analyzed in Diva 6.0.2 and exported to CSV where after all cell data was transformed to cell per mL then normalized on a per-donor basis to untreated control wells to determine drug impact.
(§3) Donor material was collected and cultured as described above. The number of replicate donor samples per drug ranged from 2–7 and varied per drug (S1 Table). Drug treatment was added at time 0 and cells were maintained in culture for 6 days. Concentrations tested for each drug compound are contained in S1 Table. Concentrations were selected to span a range that is clinically useful. Following treatment, cell populations were measured using flow cytometry. We extracted cell counts from flow cytometry data, normalized to bead counts, and corrected for well volume.
(§4) Each well was normalized to the average of six vehicle control wells. For drugs that were tested across multiple runs of the assay, vehicle-normalized donor data were pooled, and we used the average of these pooled data for further modeling. Normalized data used as model inputs are included in S1 Table.
(§5) We implemented drug effects using an Emax model for the drug’s effect on each cell type. The 13 maximum effect parameters (EmaxT,C) are unitless and can vary between 0 and 2 and where a subscript, C, represents one of the previously described 13 cell types. We adapted a traditional Emax model using the equations below. We interpreted EmaxT values less than or equal to one as anti-proliferative, and EmaxT values greater than one as indicating a cell-killing mechanism in addition to anti-proliferation. The relationships for these effects are included in the model using the following equations. Eq 2 describes the drug anti-proliferative effect in the net proliferation rate for a given cell type. Eq 3 describes the cell-killing EmaxCK effect.
(§6) Towards the estimation of mechanistic parameters, we considered different formulations: (a) weighting the objective value to prioritize fitting dead cells and (b) using regularization methodology to encourage a parsimonious solution. We assessed the contributions of these formulations using mean-squared error and goodness of fit plots for drugs with known mechanisms. […] Further, we used L1 regularization to penalize parameters […] to help identify a parsimonious set of parameters to explain drug effects.

[2] = test system: granulocyte progenitor (Gran-lin prog); test: MLTA, GranP: concentration-response and QSP model fit; details: for EmaxT,GranP / EC50: QSP model parameter, sheet EC50_parameters, GranP; for EC50: read-out: EC50GranP
Description: as §1, §2, §3, §4, §5, §6

[3] = test system: late erythroid cells (Eryth II); test: MLTA, ErythII: concentration-response and QSP model fit; details: for EmaxT,ErythroidII / EC50: QSP model parameter, sheet EC50_parameters, Erythroid II; for EC50: read-out: EC50ErythroidII
Description: as §1, §2, §3, §4, §5, §6

[4] = test system: neutrophils (neutrophil-lin); test: MLTA, Neut: concentration-response and QSP model fit; details: for EC50 / EmaxT,Neut: QSP model parameter, sheet EC50_parameters, Neut
Description: as §1, §2, §3, §4, §5, §6

[5] = test system: monocytes (monocyte-lin); test: MLTA, Mono: concentration-response and QSP model fit; details: for EC50 / EmaxT,Mono: QSP model parameter, sheet EC50_parameters, Mono
Description: as §1, §2, §3, §4, §5, §6

[6] = test system: MK cells (MK-lin); test: MLTA, MK: concentration-response and QSP model fit; details: for EC50 / EmaxT,MK: QSP model parameter, sheet EC50_parameters, MK
Description: as §1, §2, §3, §4, §5, §6

[7] = test system: lymphocyte progenitors (LymP); test: MLTA, LymP: concentration-response and QSP model fit; details: for EC50 / EmaxT,LymP: QSP model parameter, sheet EC50_parameters, LymP
Description: as §1, §2, §3, §4, §5, §6

[8] = test system: B cells (B-lin); test: MLTA, B-lin: concentration-response and QSP model fit; details: for EC50 / EmaxT,B: QSP model parameter, sheet EC50_parameters, B
Description: as §1, §2, §3, §4, §5, §6

[9] = test system: granulocytes (Gran-lin); test: MLTA, Gran: concentration-response and QSP model fit; details: for EC50 / EmaxT,Gran: QSP model parameter, sheet EC50_parameters, Gran
Description: as §1, §2, §3, §4, §5, §6

[10] = test system: multi-potent progenitors (MPPs); test: MLTA, MPPs: concentration-response and QSP model fit; details: for EC50 / EmaxT,MPP: QSP model parameter, sheet EC50_parameters, MPPs
Description: as §1, §2, §3, §4, §5, §6

[11] = test system: early erythroid cells (Eryth I); test: MLTA, ErythI: concentration-response and QSP model fit; details: for EmaxT,ErythroidI / EC50: QSP model parameter, sheet EC50_parameters, Erythroid I; for EC50: read-out: EC50ErythroidI
Description: as §1, §2, §3, §4, §5, §6

[12] = test system: monocyte progenitors (monocyte prog); test: MLTA, MonoP: concentration-response and QSP model fit; details: for EmaxT,MonoP / EC50: QSP model parameter, sheet EC50_parameters, MonoP; for EC50: read-out: EC50MonoP
Description: as §1, §2, §3, §4, §5, §6

[13] = test system: hematopoietic stem cells (HSCs); test: Multi-lineage toxicity assay (MLTA), HSCs: concentration-response and QSP model fit; set-up: EmaxAP,HSC / EmaxT,HSC / Emax_drug_HSC: unitless, 0–2; ≤1 anti-proliferative, >1 adds cell killing; details: for EC50 / EmaxT,HSC: QSP model parameter, sheet EC50_parameters, HSCs
Description: as §1, §2, §3, §4, §5, §6

[14] = parameter from QSP model fitting

## O=c1[nH]cc(F)c(=O)[nH]1 [5-FU]
[1]
  EC50: 753 nM
  EmaxT,GMP: 1.5687
  Emax_drug_GMP: 1.5687
[2]
  EmaxT,GranP: 0.0162
  EC50: 302 nM
[2]; [14]
  Emax_drug_GranP: 0.0162
[3]
  EmaxT,ErythroidII: 0.0352
  EC50: 1780 nM
[3]; [14]
  Emax_drug_ErythroidII: 0.0352
[4]
  EC50: 1030 nM
  EmaxT,Neut: 0.2668
[4]; [14]
  Emax_drug_Neut: 0.2668
[5]
  EC50: 299 nM
  EmaxT,Mono: 0.3048
[5]; [14]
  Emax_drug_Mono: 0.3048
[6]
  EC50: 1110 nM
  EmaxT,MK: 0.3220
[6]; [14]
  Emax_drug_MK: 0.3220
[7]
  EC50: 37 nM
  EmaxT,LymP: 0.0016
[7]; [14]
  Emax_drug_LymP: 0.0016
[8]
  EC50: 1090 nM
  EmaxT,B: 0.8249
[8]; [14]
  Emax_drug_B: 0.8249
[9]
  EC50: 0.117 nM
  EmaxT,Gran: 0.1807
[9]; [14]
  Emax_drug_Gran: 0.1807
[10]
  EC50: 939 nM
  EmaxT,MPP: 0.000528
[10]; [14]
  Emax_drug_MPP: 0.000528
[11]
  EmaxT,ErythroidI: 2.3324
  EC50: 921 nM
[11]; [14]
  Emax_drug_ErythroidI: 2.3324
[12]
  EmaxT,MonoP: 0.0016
  EC50: 178 nM
[12]; [14]
  Emax_drug_MonoP: 0.0016
[13]
  EC50: 1910 nM
  EmaxT,HSC: 0.7982
[13]; [14]
  Emax_drug_HSC: 0.7982

## Nc1ccn([C@@H]2O[C@H](CO)[C@@H](O)[C@@H]2O)c(=O)n1 [Cytarabine]
[1]; Homo sapiens
  EC50: 3.37 nM
[2]; Homo sapiens, 144 h, parameter from QSP model fitting, read-out: Emax_drug_GranP
  Emax: 104%
[2]; Homo sapiens
  EC50: 6.96 nM
[3]; Homo sapiens, 144 h, parameter from QSP model fitting, read-out: Emax_drug_ErythroidII
  Emax: 2.92%
[3]; Homo sapiens
  EC50: 0.101 nM
[4]; Homo sapiens, Neutrophil, 144 h, parameter from QSP model fitting, read-out: Emax_drug_Neut
  Emax: 18.3%
[4]; Homo sapiens, Neutrophil
  EC50: 6.99 nM
[5]; Homo sapiens, Monocyte, 144 h, parameter from QSP model fitting, read-out: Emax_drug_Mono
  Emax: 20.1%
[5]; Homo sapiens, Monocyte
  EC50: 63.2 nM
[6]; Homo sapiens, 144 h, parameter from QSP model fitting, read-out: Emax_drug_MK
  Emax: 42.8%
[6]; Homo sapiens
  EC50: 6.86 nM
[7]; Homo sapiens, Lymphocyte, 144 h, parameter from QSP model fitting, read-out: Emax_drug_LymP
  Emax: 0.032%
[7]; Homo sapiens, Lymphocyte
  EC50: 69.7 nM
[8]; Homo sapiens, B-cell, 144 h, parameter from QSP model fitting, read-out: Emax_drug_B
  Emax: 83.9%
[8]; Homo sapiens, B-cell
  EC50: 7.35 nM
[9]; Homo sapiens, 144 h, parameter from QSP model fitting, read-out: Emax_drug_Gran
  Emax: 0.0324%
[9]; Homo sapiens
  EC50: 32.7 nM
[10]; Homo sapiens, 144 h, parameter from QSP model fitting, read-out: Emax_drug_MPP
  Emax: 0.0181%
[10]; Homo sapiens
  EC50: 122 nM
[11]; Homo sapiens, 144 h, parameter from QSP model fitting, read-out: Emax_drug_ErythroidI
  Emax: 204%
[11]; Homo sapiens
  EC50: 4.31 nM
[12]; Homo sapiens, Monocyte, 144 h, parameter from QSP model fitting, read-out: Emax_drug_MonoP
  Emax: 0.03%
[12]; Homo sapiens, Monocyte
  EC50: 28.7 nM
[13]; Homo sapiens, Hematopoietic stem cell, 144 h, parameter from QSP model fitting, read-out: Emax_drug_HSC
  Emax: 61.3%
[13]; Homo sapiens, Hematopoietic stem cell
  EC50: 17.4 nM

## Cc1c(-c2ccc(N3CCc4cccc(C(=O)Nc5nc6ccccc6s5)c4C3)nc2C(=O)O)cnn1CC12CC3CC(CC(C3)C1)C2 [A_1331852]
[1]
  EC50: 911 nM
  EmaxT,GMP: 1.14e-6
  Emax_drug_GMP: 1.14e-6
[2]
  EmaxT,GranP: 1.71e-6
  EC50: 949 nM
[2]; [14]
  Emax_drug_GranP: 1.71e-6
[3]
  EmaxT,ErythroidII: 1.51e-6
  EC50: 1160 nM
[3]; [14]
  Emax_drug_ErythroidII: 1.51e-6
[4]
  EC50: 400 nM
  EmaxT,Neut: 1.51e-7
[4]; [14]
  Emax_drug_Neut: 1.51e-7
[5]
  EC50: 15.5 nM
  EmaxT,Mono: 0.0610
[5]; [14]
  Emax_drug_Mono: 0.0610
[6]
  EC50: 24.1 nM
  EmaxT,MK: 0.1880
[6]; [14]
  Emax_drug_MK: 0.1880
[7]
  EC50: 21.2 nM
  EmaxT,LymP: 1.6e-5
[7]; [14]
  Emax_drug_LymP: 1.6e-5
[8]
  EC50: 13.1 nM
  EmaxT,B: 0.1187
[8]; [14]
  Emax_drug_B: 0.1187
[9]
  EC50: 0.687 nM
  EmaxT,Gran: 2.2504
[9]; [14]
  Emax_drug_Gran: 2.2504
[10]
  EC50: 1000 nM
  EmaxT,MPP: 2.15e-6
[10]; [14]
  Emax_drug_MPP: 2.15e-6
[11]
  EmaxT,ErythroidI: 2.5750
  EC50: 32.3 nM
[11]; [14]
  Emax_drug_ErythroidI: 2.5750
[12]
  EmaxT,MonoP: 1.47e-5
  EC50: 182 nM
[12]; [14]
  Emax_drug_MonoP: 1.47e-5
[13]
  EC50: 1960 nM
  EmaxT,HSC: 0.0828
[13]; [14]
  Emax_drug_HSC: 0.0828
